Structures can show the parent of a compound that is named as a salt. Where two headings read alike, the source gives them in different places.
Tests used:
[1] = tested on: U-937 human histocytic lymphoma; test: In vitro inhibition rate to tumor cells (MTT), U-937; type: cell-based; conditions: for inhibition rate, Results (%) U-937: 50 μg/ml; for inhibition at 50 µg/mL: Homo sapiens, U-937, 50 μg/ml, read-out: inhibition rate, Results (%) U-937
[2] = tested on: MCF-7 human mammary adenocarcinoma; test: In vitro inhibition rate to tumor cells (MTT), MCF-7; type: cell-based; conditions: for inhibition rate, Results (%) MCF-7: 50 μg/ml; for inhibition at 50 µg/mL: Homo sapiens, MCF7, 50 μg/ml, read-out: inhibition rate, Results (%) MCF-7
[3] = tested on: LLC mouse Lewis lung carcinoma; test: In vitro inhibition rate to tumor cells (MTT), LLC; type: cell-based; conditions: 50 μg/ml; for inhibition at 50 µg/mL: Mus musculus, Lewis lung carcinoma
[4] = tested on: HepG2 cells; test: Cell status of HepG2 cells treated with sample (HBV screening); type: cell-based; conditions: 200 μg/ml, HepG2, four days after infection
[5] = tested on: SMMC-7721 human hepatic carcinoma; test: In vitro inhibition rate to tumor cells (MTT), SMMC-7721; type: cell-based; conditions: for inhibition rate, Results (%) SMMC-7721: 50 μg/ml; for inhibition at 50 µg/mL: Homo sapiens, SMMC-7721, 50 μg/ml, read-out: inhibition rate, Results (%) SMMC-7721
[6] = tested on: HL-60 human promyelocytic leukemia; test: In vitro inhibition rate to tumor cells (MTT), HL-60; type: cell-based; conditions: for inhibition rate, Results (%) HL-60: 50 μg/ml; for inhibition at 50 µg/mL: Homo sapiens, HL-60, 50 μg/ml, read-out: inhibition rate, Results (%) HL-60
[7] = tested on: Hela human cervical carcinoma; test: In vitro inhibition rate to tumor cells (MTT), Hela; type: cell-based; conditions: 50 μg/ml; for inhibition at 50 µg/mL: Homo sapiens, HeLa, read-out: inhibition rate, Results (%) Hela
[8] = tested on: Hepatitis B virus (HBV); type: cell-based; conditions: for (Value of the positive control - Measured Value) Value of the positive control × 100% / OD450 of HBeAg: 200 μg/ml; for (Value of the positive control - Measured Value) Value of the positive control × 100%: decrease of HBeAg relative to positive control; for OD450 of HBeAg: supernatant four days after infection, positive control 1.917, negative 0.057
[9] = tested on: Bel-7402 human hepatic carcinoma; test: In vitro inhibition rate to tumor cells (MTT), Bel-7402; type: cell-based; conditions: for inhibition rate, Results (%) Bel-7402: 50 μg/ml; for inhibition at 50 µg/mL: Homo sapiens, Bel-7402, 50 μg/ml, read-out: inhibition rate, Results (%) Bel-7402
[10] = tested on: A-549 human lung adenocarcinoma; test: In vitro inhibition rate to tumor cells (MTT), A-549; type: cell-based; conditions: for inhibition rate, Results (%) A-549: 50 μg/ml; for inhibition at 50 µg/mL: Homo sapiens, A549, 50 μg/ml, read-out: inhibition rate, Results (%) A-549
[11] = target: T1, HIV-1 reverse transcriptase (Human immunodeficiency virus type 1 group M subtype B, UniProt P04585); test: Screening for the in vitro activity against the HIV-1 reverse transcriptase; type: biochemical; conditions: IC50, initial concentration 200 μg/ml
T1 construct: purchased
Procedure: Principle of the test: The template to which the HIV-1 reverse transcriptase interacts was covered onto the enzyme-lined template. In the optimal reaction conditions and system, HIV-1 RT will put the substrate comprising Biotin-dUTP onto the reaction template. The activity of the enzyme was measured as the amount of the integrating Biotin-dUTP in the reaction by using streptavidin-labeled horseradish peroxidase. Adding the sample to the reaction system can identify inhibitor of the enzyme.
1. HIV-1 RT: commercially available.
2. Treatment of the samples: Before use, the sample was dissolved in DMSO at a suitable concentration, then serially diluted (5×) with double distilled water, five serial dilutions per sample.
4. Methods: The diluted sample was added into the reaction buffer containing Biotin-dUTP and the genetic engineered target enzyme, and incubated in the optimal reaction conditions. A streptavidin-labeled horseradish peroxidase was added to visual the system, and OD450 was measured.

[12] = target: T2, HIV-1 proteinase (HIV-1 PR) (Human immunodeficiency virus type 1 group M subtype B, UniProt P04585); test: Screening for in vitro activity against HIV-1 proteinase; type: biochemical; conditions: for inhibition at 0.08 µg/mL: 0.08 μg/ml; for inhibition at 0.08 µg/mL / inhibition at 0.4 µg/mL / inhibition at 2 µg/mL / inhibition at 10 µg/mL: read-out: Inhibition rate; for inhibition at 0.4 µg/mL: 0.40 μg/ml; for inhibition at 2 µg/mL: 2.0 μg/ml; for inhibition at 10 µg/mL: 10 μg/ml; for IC50: IC50, five 5× serial dilutions from 50 μg/ml; for inhibition at 50 µg/mL: read-out: Inhibition rate, 50 μg/ml
T2 construct: HIV-1 proteinase digests the fluorescent-labeled substrate; purchased
Procedure: Principle of the test: HIV-1 proteinase digests the fluorescent-labeled substrate in an optimal reaction condition and system. The activity of the enzyme can be reflected by the fluorescent intensity in the product of the enzyme reaction. Adding a sample into the reaction system can be used for screening the inhibitor of the enzyme.
1. HIV-1 PR: commercially available, stored at −85° C.
2. Treatment of the samples: Before use, sample was dissolved in DMSO at a suitable concentration, then serially diluted (5×) with double distilled water, five serial dilutions per sample.
3. Positive control: indinavir, purchased from […].
4. Methods: The diluted sample was added into the reaction buffer containing the fluorescent-labeled substrate. Then the genetic engineered target enzyme was added, and incubated in the optimal reaction condition. The fluorescent value was measured with a FLUO star Galaxy luminoscope.

[13] = target: T3, HIV-1 integrase (HIV-1 IN) (Human immunodeficiency virus type 1 group M subtype B, UniProt P04585); test: Screening for the activity against HIV-1 integrase; type: biochemical; conditions: initial concentration 100 μg/ml; read-out: IC50
T3 construct: a purified HIV-1 integrase was added into each well; purchased
Procedure: Principle of the test: A synthetic oligonucleotide of 30 nt was used as the donor substrate. A synthetic oligonucleotide of 20 nt was used as the target substrate. A 96-well plate was covered by the donor substrate, and a purified HIV-1 integrase was added into each well. ELISA was performed to measure the product of the target DNA chain transfer. A biotin-labeled alkali phosphatase was used to visual the system. OD value was measured by an Enzyme-linked Detector. Add a sample into the reaction system for screening the inhibitor of the enzyme.
1. HIV-1 IN: commercially available.
2. Treatment of the samples: Before use, the sample was dissolved in water or DMSO at a suitable concentration, then serially diluted (5×), four serial dilutions per sample. The stock solutions of two samples were 100-fold diluted with DMSO, then 5-fold diluted, four serial dilutions per sample. Positive control: S-y, provided by Shanghai Organic Chemistry Institute.
3. The donor substrate and target substrate: synthesized by Shanghai Biological Engineering Company (Shanghai Shenggong).
4. Methods: The diluted sample was added into a 96-well plate covered by the donor substrate, and then added into the reaction buffer containing the genetic engineered target enzyme and biotin-target substrate, incubated in the optimal reaction conditions. A biotin-labeled alkali phosphatase was used to visual the system to determine the absorbance at 450 nm (OD450).

[14] = tested on: 293 cells; test: Cell status of 293 cells treated with sample alone (herpes virus screening); conditions: 200 μg/ml, 24 hrs
[15] = Table 2 (repeated screening), hydrochloride

## CC(C)C1CC23OC1(O)C/C(=C\NC(C)(C)C)C2CCC3C (stereo not shown) [Compound 16, Curcumol t-butyl amine hydrochloride]
[1]; Table 1, hydrochloride
  inhibition rate, Results (%) U-937: 82.56%
[1]; [15]
  inhibition rate, Results (%) U-937: 80.12%
[2]; Table 1, hydrochloride
  inhibition rate, Results (%) MCF-7: 54.89%
[2]; [15]
  inhibition rate, Results (%) MCF-7: 50.32%
[3]; Table 1, hydrochloride
  inhibition rate, Results (%) LLC: 1.13%
[3]; [15]
  inhibition rate, Results (%) LLC: 0.22%
[4]
  Cell status: Normal
[5]; Table 1
  inhibition rate, Results (%) SMMC-7721: −2.50%
[5]; [15]
  inhibition rate, Results (%) SMMC-7721: 2.63%
[6]; Table 1, hydrochloride
  inhibition rate, Results (%) HL-60: 2.31%
[6]; [15]
  inhibition rate, Results (%) HL-60: 15.00%
[7]; Table 1, hydrochloride
  inhibition rate, Results (%) Hela: 68.99%
[7]; [15]
  inhibition rate, Results (%) Hela: 70.32%
[8]
  (Value of the positive control - Measured Value) Value of the positive control × 100%: 73.81%
  OD450 of HBeAg: 0.502
[8]; primary screening, HBV e antigen, HepG2, 13 samples
  activity against HBV (in words): had the activity against HBV
[9]; Table 1, hydrochloride
  inhibition rate, Results (%) Bel-7402: 1.23%
[9]; [15]
  inhibition rate, Results (%) Bel-7402: 8.99%
[10]; Table 1, hydrochloride
  inhibition rate, Results (%) A-549: 6.01%
[10]; [15]
  inhibition rate, Results (%) A-549: 10.19%

## CC(C)C1CC23OC1(O)CC1(CO1)C2CCC3C (stereo not shown) [Compound 47, Curcumol epoxy compound]
[11]
  IC50: > 793 µM
[1]; Table 1
  inhibition at 50 µg/mL: 86.5%
[1]; Table 2 (repeated screening)
  inhibition at 50 µg/mL: 85.4%
[2]; Table 1
  inhibition at 50 µg/mL: 65.1%
[2]; Table 2 (repeated screening)
  inhibition at 50 µg/mL: 60.5%
[3]; Table 1
  inhibition at 50 µg/mL: -13.2%
[3]; Table 2 (repeated screening)
  inhibition at 50 µg/mL: -14%
[4]
  Cell status: Poor
[5]; Table 1
  inhibition at 50 µg/mL: -1.43%
[5]; Table 2 (repeated screening)
  inhibition at 50 µg/mL: -3.25%
[6]; Table 1
  inhibition at 50 µg/mL: 10.3%
[6]; Table 2 (repeated screening)
  inhibition at 50 µg/mL: 1.96%
[7]; Table 1
  inhibition at 50 µg/mL: 83.7%
[7]; Table 2 (repeated screening)
  inhibition at 50 µg/mL: 80.8%
[12]
  inhibition at 0.08 µg/mL: 6.89%
  inhibition at 0.4 µg/mL: 12.3%
  inhibition at 2 µg/mL: 12.9%
  inhibition at 10 µg/mL: 1.78%
  IC50: > 198 µM
  inhibition at 50 µg/mL: 0.56%
[8]
  (Value of the positive control - Measured Value) Value of the positive control × 100%: 80.96%
  OD450 of HBeAg: 0.365
[9]; Table 1
  inhibition at 50 µg/mL: 2.88%
[9]; Table 2 (repeated screening)
  inhibition at 50 µg/mL: 2.35%
[10]; Table 1
  inhibition at 50 µg/mL: -12%
[10]; Table 2 (repeated screening)
  inhibition at 50 µg/mL: -7.85%
[13]
  inhibition at 100 µg/mL: < 50%

## CC(C)C1CC23OC1(O)CC(C)C2CCC3C (stereo not shown) [Compound 33, hydrogenated curcumol derivative]
[11]
  IC50: > 839 µM
[1]; Table 1
  inhibition at 50 µg/mL: 44.3%
[1]; Table 2 (repeated screening)
  inhibition at 50 µg/mL: 43.2%
[2]; Table 1
  inhibition at 50 µg/mL: 45.3%
[2]; Table 2 (repeated screening)
  inhibition at 50 µg/mL: 39.3%
[3]; Table 1
  inhibition at 50 µg/mL: 4.18%
[3]; Table 2 (repeated screening)
  inhibition at 50 µg/mL: 3.12%
[4]
  Cell status: Poor
[5]; Table 1
  inhibition at 50 µg/mL: -7.44%
[5]; Table 2 (repeated screening)
  inhibition at 50 µg/mL: -1.56%
[6]; Table 1
  inhibition at 50 µg/mL: 1.32%
[6]; Table 2 (repeated screening)
  inhibition at 50 µg/mL: 7.68%
[7]; Table 1
  inhibition at 50 µg/mL: 60.9%
[7]; Table 2 (repeated screening)
  inhibition at 50 µg/mL: 59.8%
[12]
  inhibition at 0.08 µg/mL: 13.2%
  inhibition at 0.4 µg/mL: 11.4%
  inhibition at 2 µg/mL: 10.6%
  inhibition at 10 µg/mL: 1.3%
  IC50: > 210 µM
  inhibition at 50 µg/mL: 9.14%
[8]
  (Value of the positive control - Measured Value) Value of the positive control × 100%: 96.45%
  OD450 of HBeAg: 0.068
[9]; Table 1
  inhibition at 50 µg/mL: 14.3%
[9]; Table 2 (repeated screening)
  inhibition at 50 µg/mL: 14.9%
[10]; Table 1
  inhibition at 50 µg/mL: 16.3%
[10]; Table 2 (repeated screening)
  inhibition at 50 µg/mL: 14.3%
[13]
  inhibition at 100 µg/mL: < 50%

## CC(C)C1CC23OC1(O)CC(=CO[N+](=O)[O-])C2CCC3C (stereo not shown) [Compound 19, Curcumol mononitrate]
[1]; Table 1
  inhibition rate, Results (%) U-937: 50.97%
[1]; Table 2 (repeated screening)
  inhibition rate, Results (%) U-937: 42.23%
[2]; Table 1
  inhibition rate, Results (%) MCF-7: 12.6%
[2]; Table 2 (repeated screening)
  inhibition rate, Results (%) MCF-7: 0.16%
[3]; Table 1
  inhibition rate, Results (%) LLC: −15.52%
[3]; Table 2 (repeated screening)
  inhibition rate, Results (%) LLC: −16.00%
[5]; Table 1
  inhibition rate, Results (%) SMMC-7721: 23.01%
[5]; Table 2 (repeated screening)
  inhibition rate, Results (%) SMMC-7721: 12.301%
[6]; Table 1
  inhibition rate, Results (%) HL-60: 54.03%
[6]; Table 2 (repeated screening)
  inhibition rate, Results (%) HL-60: 55.98%
[7]; Table 1
  inhibition rate, Results (%) Hela: 55.67%
[7]; Table 2 (repeated screening)
  inhibition rate, Results (%) Hela: 50.27%
[14]
  Cytopathy and cell status, Sample: Apoptotic
[9]; Table 1
  inhibition rate, Results (%) Bel-7402: 4.32%
[9]; Table 2 (repeated screening)
  inhibition rate, Results (%) Bel-7402: 8.95%
[10]; Table 1
  inhibition rate, Results (%) A-549: 2.51%
[10]; Table 2 (repeated screening)
  inhibition rate, Results (%) A-549: 3.10%
